Assay results from EP0286418A1, “Anti-retroviral agents and delivery systems for the same” (priority 1987, dated 1988).

Assays:
[1] = capture / encapsulation volume of ddCTP liposomes; format: physicochemical
Procedure: The amount of lipid in the preparation was determined from ¹⁴C counts (¹⁴C-cholesteryl oleate) in a standard beta counting scintillation fluid. The amount of ddCTP was assessed from the optical density at 280 nm. Samples for optical density reading were prepared by adding 0.9 ml of 65:25 chloroform ethanol solution to 0.5 ml of the sample. This eliminated light scatter that would otherwise have resulted from the presence of lipid particles. Negative staining electron microscopy was performed using glow-discharged formvar-carbon coated grids and sodium phosphotungstate. Release of ddCTP from liposomes was assessed by dialysis of samples against phosphate buffered saline. The integrity of ddCTP was assessed by high-performance gradient-elution anion exchange chromatography.
The amounts of lipid and ddCTP in the preparation were calculated from ¹⁴C and ³H counts, respectively. Encapsulation was generally in the range of 1.5 - 2 microliters/micromole EPC. The size distribution of liposomes was determined by quasi-elastic light-scattering (QELS) using an N4MD multiple-angle submicron particle size analyzer (Coulter, Hialeah, Fla., USA). […] The profile is substantially similar to that of a fresh preparation. The weight average diameter was about 215 nm with the coefficient of variation being about 100 nm.

monocytes [2] = test: percent lysis of Candida albicans by monocytes; format: cell-based, Human; conditions: effect on monocyte function
Procedure: (§1) Human peripheral blood mononuclear cells were obtained by standard procedures employing continuous flow cell separation (leukapheresis), such as described in Wahl, et al., Cellular Immunol. 85:373-383 (1984). The preparation was diluted in phosphate-buffered saline and layered onto gradients of Ficoll-Paque (Pharmacia-PL Biochemicals, Piscataway, N.J., USA). After centrifugation, mononuclear cells were pipetted from the interface, washed, and suspended in DMEM-GG-FCS. They were then fractionated by countercurrent centrifugal elutriation. The procedure comprises the Beckman elutriation system including a J-21 Beckman Centrifuge, a JE-6 elutriator rotor, a stroboscope, and a Masterflex pump and pumphead. The cells were loaded into the rotor and fractionated by elution at increasing flow rates. Fractions 7 and 8, highly enriched for monocytes, were pooled for use.

[3] = leakage from liposomes at 4°C; format: physicochemical; conditions: liposomes of Example 1 or similar liposomes
[4] = leakage from liposomes at 37°C in DMEM-GG-FCS; format: physicochemical
Procedure: The release of liposome contents as a function of time was assessed by centrifugal elution of free ddCTP through Centrifree filters (Amicon, Danvers, Mass., USA). Typically, 100 microliters of suspension was centrifuged at 1500 G for about 10 minutes, 100 microliters additional phosphate-buffered saline was added, and the filter was again spun for about 10 minutes. Pooled filtrate was counted for ³H-ddCTP to determine released drug, and the filter itself was similarly counted to establish the mass balance. Very little ¹⁴C-cholesteryl oleate was ever found in the filtrate, indicating that liposomal lipid was not passing through the filter. […] Leakage tests were also conducted under conditions mimicking those of the viral experiments infra, i.e., in tissue culture plates with 96 flat-bottom wells (Costar, Cambridge, Mass., USA) at 37°C in a CO₂ incubator in Dulbecco's Minimal Eagles Medium supplemented with gentamycin, glutamine, and 10% fetal calf serum (DMEM-GG-FCS). […] In contrast, 50% of the ddC was released within 1 hour, and 95% within 4 hours.

[5] = target: T1, HIV reverse transcriptase (Human immunodeficiency virus type 1 group M subtype B, UniProt P03367); test: reverse transcriptase assay on supernatant of chronically HIV-producing cells; format: cell-based; conditions: for activity at 10 µg/mL: dose 10.0 micrograms/ml; for activity at 0.01 µg/mL: dose 0.01 micrograms/ml; for activity at 0.1 µg/mL: dose 0.1 micrograms/ml; for activity at 1 µg/mL: dose 1.0 micrograms/ml
T1 construct: endogenous in cells; host or cells: U.1 (clone of promonocytic U937) and 8.E6 (clone of lymphoid A.301), chronically HIV-producing
Procedure: Liposomes were tested for toxic effect on two types of cells which chronically produce HIV. One clone (8.E6) was derived from the lymphoid cell line A.301; the other clone (U.1) was derived from the promonocytic line U937. Cells (1×10⁶/well) in RPMI medium with 10% fetal calf serum were pipetted into a flat-bottom 96-well microtiter plate. To each well was added 50 microliters of solution containing ddCTP-liposomes, empty liposomes, free ddCTP or phosphate buffered saline. Fifty microliters of phorbol myristyl acetate (PMA) was then added to each well to a final concentration of 10⁻⁹ M for stimulation, or else 50 microliters of saline was added for non-stimulated configurations. The plates were incubated at 37°C in 7% CO₂ for about 48 hours. 100 microliters of supernatant was then taken from each well to analyze for reverse transcriptase (RT) activity using polyadenylate and oligo-deoxythymidine. To perform the RT assay, 10 microliters of supernatant containing RT was added to a cocktail containing poly A, oligo dT (Pharmacia, Inc. Piscataway, N.J., USA) MgCl₂, and ³²P-dTTP (Amersham) and incubated for 2 hours at 37°C. Ten microliters of the cocktail was then spotted onto DE81 paper, dried, and washed in 1X saline sodium citrate buffer. The paper was then dried, cut and counted on a Beckman LS 7000 scintillation counter.

[6] = trypan blue exclusion test; format: cell-based; conditions: human, 8.e6 and u.1 cells; at all doses; read-out: viable cells (trypan blue exclusion)
Excerpt: Tritiated thymidine uptake was used to assess toxic effects of ddCTP liposomes on the lymphoid (8.E6) and promonocytic (U.1) clones. […] As judged by trypan blue exclusion test, the cells remained more than 90% viable at all doses.

monocytes [7] = test: production of prostaglandin E2 by monocytes; format: cell-based, Human; conditions: effect on monocyte function
Procedure: as §1

[8] = PMA-stimulated (1 nM) U.1 cells, normalized by average of empty liposome controls
[9] = U.1 cells, no PMA, relative to controls with no drug

Nc1ccn([C@H]2CC[C@@H](COP(=O)(O)OP(=O)(O)OP(=O)(O)O)O2)c(=O)n1 [ddCTP, 2ʹ,3ʹ-dideoxycytidine-5ʹ-triphosphate]
calculated capture ([1]; Example 1 liposomes (DPPC/DPPG/cholesterol)): 2.6 microliters/micromole lipid | Encapsulation ([1]; Example 2 liposomes (EPC/PS/cholesterol)): 1.5 - 2 microliters/micromole EPC | percent lysis of Candida albicans (monocytes [2]): No consistent effects | t1/2 for leakage from liposomes [3]: > 60 h | % of total drug in liposomes ([4]; absence of cells, 0 h): 85.6% | % of total drug in liposomes ([4]; absence of cells, 0.16 h): 74.3% | % of total drug in liposomes ([4]; absence of cells, 0.32 h): 78.5% | % of total drug in liposomes ([4]; absence of cells, 1 h): 77.2% | % of total drug in liposomes ([4]; absence of cells, 2 h): 82.1% | % of total drug in liposomes ([4]; absence of cells, 4 h): 78.5% | % of total drug in liposomes ([4]; absence of cells, 24 h): 81.7% | % of total drug in liposomes ([4]; absence of cells, 48 h): 75.7% | % of total drug in liposomes ([4]; absence of cells, 72 h): 87.4% | leakage from liposomes ([4]; over a period of 72 hours, presence or absence of adherent monocytes): Very little leakage | % of total drug in liposomes ([4]; with adherent human monocytes, 0 h): 84.4% | % of total drug in liposomes ([4]; with adherent human monocytes, 0.16 h): 83.8% | % of total drug in liposomes ([4]; with adherent human monocytes, 0.32 h): 84.4% | % of total drug in liposomes ([4]; with adherent human monocytes, 1 h): 78.0% | % of total drug in liposomes ([4]; with adherent human monocytes, 2 h): 83.3% | % of total drug in liposomes ([4]; with adherent human monocytes, 4 h): 82.9% | % of total drug in liposomes ([4]; with adherent human monocytes, 24 h): 75.9% | % of total drug in liposomes ([4]; with adherent human monocytes, 48 h): 68.0% | % of total drug in liposomes ([4]; with adherent human monocytes, 72 h): 78.4% | activity at 10 µg/mL ([5]; 48 h, U.1 cells, no PMA, relative to controls with no drug): 69 ± 21% | activity at 0.01 µg/mL [5, 8]: 84% | activity at 0.1 µg/mL [5, 8]: 96% | activity at 1 µg/mL [5, 8]: 75% | activity at 10 µg/mL [5, 8]: 75% | activity at 0.01 µg/mL [5, 9]: 67 ± 19% | activity at 0.1 µg/mL [5, 9]: 80 ± 12% | activity at 1 µg/mL [5, 9]: 61 ± 4% | viability [6]: > 90% | production of prostaglandin E2 (monocytes [7]): No consistent effects
